Like-named read-outs stand apart in the source and are kept apart here.
How the values were obtained:
[1] = molecular target: T1, human dopamine transporter (hDAT) (Homo sapiens, UniProt Q01959); test: biochemical; assay type: binding
[2] = molecular target: T2, human norepinephrine transporter (hNET) (Homo sapiens, UniProt P23975); test: biochemical; details: read-out: NET binding affinity Ki
[3] = molecular target: T3, human serotonin transporter (hSERT) (Homo sapiens, UniProt P31645); test: biochemical; details: [125I]RTI-55, read-out: SERT binding affinity Ki
[4] = molecular target: T3, human serotonin transporter (hSERT); test: cell-based
[5] = molecular target: T2, human norepinephrine transporter (hNET); test: cell-based; details: read-out: Reuptake Inhibition [3H]NE IC50
[6] = molecular target: T1, human dopamine transporter (hDAT); test: cell-based
[7] = Table 4, [125I]RTI-55, read-out: DAT binding affinity Ki
[8] = Table 4-1, read-out: Reuptake Inhibition [3H]5-HT IC50
[9] = Table 4-1, read-out: Reuptake Inhibition [3H]DA IC50
[10] = Table 5, [125I]RTI-55, oxalate salts
[11] = Reuptake Inhibition [3H]5-HT IC50, Table 6
[12] = Reuptake Inhibition [3H]DA IC50, Table 6

T3 sequence (P31645 whole entry): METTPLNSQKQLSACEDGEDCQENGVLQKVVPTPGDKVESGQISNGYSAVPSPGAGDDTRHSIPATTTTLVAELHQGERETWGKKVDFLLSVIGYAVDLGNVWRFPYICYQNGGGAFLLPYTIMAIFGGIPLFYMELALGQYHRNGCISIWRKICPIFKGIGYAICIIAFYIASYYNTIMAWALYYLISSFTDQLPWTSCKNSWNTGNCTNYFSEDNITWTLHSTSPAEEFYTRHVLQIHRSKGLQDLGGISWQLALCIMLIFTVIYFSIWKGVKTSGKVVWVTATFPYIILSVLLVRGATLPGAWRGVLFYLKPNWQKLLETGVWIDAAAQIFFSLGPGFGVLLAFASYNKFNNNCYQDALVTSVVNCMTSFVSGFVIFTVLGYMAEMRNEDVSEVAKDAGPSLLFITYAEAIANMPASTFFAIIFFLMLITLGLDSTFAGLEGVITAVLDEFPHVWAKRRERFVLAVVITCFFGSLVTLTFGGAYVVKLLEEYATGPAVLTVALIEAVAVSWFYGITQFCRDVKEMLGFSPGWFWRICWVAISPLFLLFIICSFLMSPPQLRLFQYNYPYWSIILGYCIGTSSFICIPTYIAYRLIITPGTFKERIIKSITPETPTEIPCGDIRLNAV
T1 sequence (Q01959 whole entry): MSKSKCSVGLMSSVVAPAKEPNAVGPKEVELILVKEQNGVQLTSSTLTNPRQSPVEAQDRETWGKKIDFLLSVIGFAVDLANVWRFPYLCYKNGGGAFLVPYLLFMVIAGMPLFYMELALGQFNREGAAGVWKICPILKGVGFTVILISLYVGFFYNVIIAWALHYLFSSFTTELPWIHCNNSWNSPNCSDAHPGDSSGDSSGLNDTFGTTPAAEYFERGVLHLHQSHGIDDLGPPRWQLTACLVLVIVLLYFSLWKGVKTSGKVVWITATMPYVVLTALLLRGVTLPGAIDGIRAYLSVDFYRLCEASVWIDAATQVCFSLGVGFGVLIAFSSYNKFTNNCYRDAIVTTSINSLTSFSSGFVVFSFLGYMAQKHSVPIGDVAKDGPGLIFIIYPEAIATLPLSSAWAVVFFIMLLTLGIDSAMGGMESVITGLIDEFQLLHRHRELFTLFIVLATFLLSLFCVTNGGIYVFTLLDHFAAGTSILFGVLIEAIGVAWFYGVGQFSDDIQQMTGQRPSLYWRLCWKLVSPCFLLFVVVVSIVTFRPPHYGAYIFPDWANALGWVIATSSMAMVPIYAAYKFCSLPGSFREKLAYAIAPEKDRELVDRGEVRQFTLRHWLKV
T2 sequence (P23975 whole entry): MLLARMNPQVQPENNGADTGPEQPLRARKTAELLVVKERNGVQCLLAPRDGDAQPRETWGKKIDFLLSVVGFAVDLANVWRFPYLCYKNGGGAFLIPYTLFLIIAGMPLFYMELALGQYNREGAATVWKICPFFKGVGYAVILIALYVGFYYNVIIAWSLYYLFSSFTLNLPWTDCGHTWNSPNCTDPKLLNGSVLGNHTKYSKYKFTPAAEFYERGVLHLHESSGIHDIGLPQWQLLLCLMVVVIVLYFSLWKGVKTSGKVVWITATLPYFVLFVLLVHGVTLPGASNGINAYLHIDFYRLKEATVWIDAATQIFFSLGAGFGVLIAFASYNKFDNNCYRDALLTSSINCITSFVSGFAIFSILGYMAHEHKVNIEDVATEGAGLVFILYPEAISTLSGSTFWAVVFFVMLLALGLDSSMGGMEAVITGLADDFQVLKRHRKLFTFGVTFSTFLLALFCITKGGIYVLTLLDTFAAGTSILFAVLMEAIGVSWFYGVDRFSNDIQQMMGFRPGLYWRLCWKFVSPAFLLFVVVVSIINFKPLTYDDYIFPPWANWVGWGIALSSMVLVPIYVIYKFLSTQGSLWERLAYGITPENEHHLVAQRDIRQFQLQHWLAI

Structure (SMILES): O=C(NCc1ccc(F)cc1)NC1CCN(CCCCOC(c2ccc(F)cc2)c2ccc(F)cc2)CC1 [Compound 18]
- Ki [1]: 1.7 nM
- Binding Ratios NET/DAT ([1]; Table 3): 25.3
- Binding Ratios SERT/DAT ([1]; Table 3): 121
- Ki ([2]; Table 3, [125I]RTI-55): 0.043 µM
- Ki ([3]; Table 3): 206 ± 37 nM
- IC50 ([4]; Reuptake Inhibition [3H]5-HT IC50, Table 3-1, bound given in μM): > 10 µM
- IC50 ([5]; Table 3-1): 1.67 ± 0.688 µM
- IC50 ([6]; Reuptake Inhibition [3H]DA IC50, Table 3-1): 1.05 ± 0.291 µM
- Discrimination Ratios [3H]DA reuptake/DAT binding ([6]; Table 3-1): 618

Structure (SMILES): NCC1(c2ccccc2)CCN(CCCCOC(c2ccc(F)cc2)c2ccc(F)cc2)CC1 [Compound 21]
- Binding Ratios SERT/DAT ([1]; Table 4): 2.5
- Ki [1, 7]: 140 ± 53 nM
- Ki ([3]; Table 4): 347 ± 152 nM
- IC50 [4, 8]: 0.337 ± 0.128 µM
- Discrimination Ratios [3H]DA reuptake/DAT binding ([6]; Table 4-1): 1.1
- IC50 [6, 9]: 0.155 µM

Structure (SMILES): O=C(NCC1(c2ccccc2)CCN(CCCCOC(c2ccc(F)cc2)c2ccc(F)cc2)CC1)Nc1ccc(F)cc1 [Compound 22]
- Ki [1]: 83 nM
- Binding Ratios SERT/DAT ([1]; Table 4): 2.8
- Ki ([3]; Table 4): 234 nM
- IC50 [4, 8]: 0.367 ± 0.062 µM
- Discrimination Ratios [3H]DA reuptake/DAT binding ([6]; Table 4-1): 120.5
- IC50 ([6]; Table 4-1, bound given in μM, read-out: Reuptake Inhibition [3H]DA IC50): > 10 µM

Structure (SMILES): CC(=O)NCC1(c2ccccc2)CCN(CCCCOC(c2ccc(F)cc2)c2ccc(F)cc2)CC1 [Compound 23]
- Binding Ratios SERT/DAT ([1]; Table 4): 1.5
- Ki [1, 7]: 172 ± 14 nM
- Ki ([3]; Table 4): 258 ± 76 nM
- IC50 [4, 8]: 0.359 ± 0.078 µM
- Discrimination Ratios [3H]DA reuptake/DAT binding ([6]; Table 4-1): 0.8
- IC50 [6, 9]: 0.129 ± 0.032 µM

Structure (SMILES): O=C(CCN1C(=O)C=CC1=O)NCC1(c2ccccc2)CCN(CCCCOC(c2ccc(F)cc2)c2ccc(F)cc2)CC1 [Compound 25]
- Binding Ratios SERT/DAT ([1]; Table 4): 7.7
- Ki [1, 7]: 827 ± 197 nM
- Ki ([3]; Table 4): 6400 ± 2680 nM
- IC50 [4, 8]: 3.12 ± 1.47 µM
- Discrimination Ratios [3H]DA reuptake/DAT binding ([6]; Table 4-1): 1.2
- IC50 [6, 9]: 0.988 ± 0.305 µM

Structure (SMILES): O=C(CCl)NCC1(c2ccccc2)CCN(CCCCOC(c2ccc(F)cc2)c2ccc(F)cc2)CC1 [Compound 26]
- Binding Ratios SERT/DAT ([1]; Table 4): 1.8
- Ki [1, 7]: 316 ± 77 nM
- Ki ([3]; Table 4): 580 ± 177 nM
- IC50 [4, 8]: 0.27 µM
- Discrimination Ratios [3H]DA reuptake/DAT binding ([6]; Table 4-1): 1.5
- IC50 [6, 9]: 0.486 ± 0.25 µM

Structure (SMILES): O=C1CN(CCCCOC(c2ccc(F)cc2)c2ccc(F)cc2)CCN1 [Compound 27, 2-Oxo-4-[4-[bis(4-fluorophenyl)methoxy]butyl]piperazine]
- Binding Ratios NET/DAT ([1]; Table 5): >2.4
- Binding Ratios SERT/DAT ([1]; Table 5): 0.4
- Ki ([1]; Table 5, [125I]RTI-55, oxalate salts, read-out: DAT binding affinity Ki): 4100 ± 790 nM
- Ki ([2]; Table 5, bound given in μM): > 10 µM
- Ki ([3]; Table 5, oxalate salts): 1800 ± 450 nM
- IC50 ([4]; Table 6, read-out: Reuptake Inhibition [3H]5-HT IC50): 5.34 ± 0.95 µM
- IC50 ([5]; Table 6, bound given in μM): > 10 µM
- Discrimination Ratios (DR) [3H]DA reuptake/DAT binding ([6]; Table 6): 0.6
- IC50 ([6]; Table 6, read-out: Reuptake Inhibition [3H]DA IC50): 2.29 ± 0.2 µM

Structure (SMILES): Fc1ccc(C(OCCCCN2CCN(c3ccc(F)cc3)CC2)c2ccc(F)cc2)cc1 [Compound 31, 1-(4-Fluorophenyl)-4-[4-[bis(4-fluorophenyl)methoxy]butyl]piperazine]
- Binding Ratios NET/DAT ([1]; Table 5): 7.8
- Binding Ratios SERT/DAT ([1]; Table 5): 1.3
- Discrimination Ratios (DR) [3H]DA reuptake/DAT binding ([6]; Table 6): 23

Structure (SMILES): Fc1ccc(C(OCCCCN2CCN(c3ccccc3Cl)CC2)c2ccc(F)cc2)cc1 [Compound 32, 1-(2-Chlorophenyl)-4-[4-[bis(4-fluorophenyl)methoxy]butyl]piperazine]
- Ki [1]: 67 ± 10 nM
- Binding Ratios NET/DAT ([1]; Table 5): 8.1
- Binding Ratios SERT/DAT ([1]; Table 5): 1.3
- Ki [2, 10]: 0.54 ± 0.18 µM
- Ki ([3]; Table 5, oxalate salts): 88 ± 29 nM
- IC50 [4, 11]: 0.119 ± 0.033 µM
- IC50 ([5]; Table 6): 0.29 ± 0.11 µM
- IC50 [6, 12]: 0.328 ± 0.034 µM
- Discrimination Ratios (DR) [3H]DA reuptake/DAT binding ([6]; Table 6): 4.9

Structure (SMILES): Fc1ccc(C(OCCCCN2CCN(c3cccc(Cl)c3)CC2)c2ccc(F)cc2)cc1 [Compound 33, 1-(3-Chlorophenyl)-4-[4-[bis(4-fluorophenyl)methoxy]butyl]piperazine]
- Binding Ratios NET/DAT ([1]; Table 5): 1.7
- Binding Ratios SERT/DAT ([1]; Table 5): 0.8
- Discrimination Ratios (DR) [3H]DA reuptake/DAT binding ([6]; Table 6): 9.5

Structure (SMILES): CC(=O)c1ccc(N2CCN(CCCCOC(c3ccc(F)cc3)c3ccc(F)cc3)CC2)cc1 [Compound 37, 1-[4-[4-[4-[Bis(4-fluorophenyl)methoxy]butyl]piperazin-1-yl]phenyl]ethanone]
- Ki [1]: 27 ± 8.6 nM
- Binding Ratios NET/DAT ([1]; Table 5): 4.1
- Binding Ratios SERT/DAT ([1]; Table 5): 1.6
- Ki [2, 10]: 0.112 ± 0.038 µM
- Ki ([3]; Table 5, oxalate salts): 42 ± 16 nM
- IC50 [4, 11]: 1.23 ± 0.54 µM
- IC50 ([5]; Table 6): 0.033 ± 0.015 µM
- IC50 [6, 12]: 3.01 ± 0.0086 µM
- Discrimination Ratios (DR) [3H]DA reuptake/DAT binding ([6]; Table 6): 111.5

Reference: patent publication US8772319B2 (priority 2004, dated 2014)
